Data as given in PMC9738632 (Molecules, 2022).
Like-named read-outs stand apart in the source and are kept apart here.

How the values were obtained:
[1] = system: DENV-1:VN/2017/D7709; test: Plaque reduction neutralization test (PRNT), DENV-1; assay type: cell-based, Dengue virus; details: DENV-1, BHK-21 cells; for IC50: Dengue virus, DENV1, read-out: PRNT50 DENV-1 (concentration that reduces plaque number by 50%)
Source text: (§1) The dengue viruses used in this study were DENV-1:VN/2017/D7709, DENV-2: 00St22A, DENV-3: SMLC50, DENV-4: SLMC318. The virus strains were supplied by the Vietnam National Institute of Hygiene and Epidemiology. The four above serotypes of the Dengue virus were propagated in BHK-21 cell lines (provided by Nagasaki University, Japan) in Eagle’s Minimum Essential Medium (EMEM; Gibco Thermo Fischer Scientific, Waltham, MA, USA) with 2% Fetal Bovine Serum (FBS; Sigma Aldrich, St. Louis, MO, USA) at 37 °C under 5% CO2 atmosphere for 5–7 days. The BHK-21 cells were cultured using 10% FBS EMEM medium.
(§2) EMEM (1 mL) containing FBS (2%) was added into each of 24-well plates (with a concentration of […] –1.0 × 10^4 cells/well). The well plates were shaken to induce the formation of identical cell layers. Afterwards, the wells were incubated at 37 °C under 5% CO2 atmosphere overnight until the cell concentration reached at 70–90%. In case this concentration was not yet reached, the incubation was allowed to continue for a further 1 to 2 days.
(§3) The compounds 4–8 and 23 were totally dissolved in EMEM with a concentration of 500 μg/mL, which was serially diluted with step 2 with EMEM containing 2% FBS; the solutions of compounds were kept at 2–8 °C. The viruses were used at the dose of 2.5 × 10^3 PFU/mL in EMEM containing 2% FBS. The virus (100 μL) was added to all the diluted samples. The virus-compounds mixtures were incubated at 37 °C under 5% CO2 atmosphere for 60 min; afterwards, the medium in all wells of the plates was removed. The virus-compounds mixture (50 μL) was added into the wells, according to the designed experimental test concentration/dilution.
(§4) The viral medium was used as the negative control. EMEM (2 mL) containing methyl cellulose (1%) was added and re-incubated at 37 °C under 5% CO2 atmosphere for 4–6 days. The typical DENV-1 and DENV-4-induced CPE appeared after 4 days of incubation, while the durations for DENV-2 and DENV-3 were 5 and 6 days, respectively. These times of incubation allowed the formation of the plaques to be visually observable and countable. The plaques can be observed under a microscope or by eyes. The cells were fixed with formalin (3.7%) for 1 h at room temperature, washed with water, and stained with crystal violet (0.25%) for 1 h at room temperature. Finally, the plaques were counted.

[2] = system: DENV-3: SMLC50; test: Plaque reduction neutralization test (PRNT), DENV-3; assay type: cell-based, Dengue virus; details: DENV-3, BHK-21 cells; for IC50: Dengue virus, DENV3, read-out: PRNT50 DENV-3 (concentration that reduces plaque number by 50%)
Source text: as §1, §2, §3, §4

[3] = system: DENV-2: 00St22A; test: Plaque reduction neutralization test (PRNT), DENV-2; assay type: cell-based, Dengue virus; details: DENV-2, BHK-21 cells; for IC50: Dengue virus, DENV2, read-out: PRNT50 DENV-2 (concentration that reduces plaque number by 50%)
Source text: as §1, §2, §3, §4

[4] = Cytotoxic assay (MTT) against BHK-21 cells; assay type: cell-based; details: hamster, read-out: CC50 (50% cytotoxic concentration)
Method: The cytotoxic evaluation of the extracts was carried out against the BHK-21 cells. Under cultural conditions of EMEM with FBS (10%), the assaying cells were grown in 96-well bottom-transparent plates at a density of 6 × 10^4 cells/mL per well. The compounds that had been dissolved in dimethyl sulfoxide (DMSO) with six different concentrations (500, 250, 125, 62.5, 31.25, 15.625 μg/mL) were added into each well; each concentration was used in triplicate. After incubation at 37 °C under 5% CO2 atmosphere for 48 h, MTT (0.5 mg/mL) was added into each well; afterwards, 4 h incubation was carried out. The liquid in the wells was removed, and DMSO ([…]) was added to each well. The optical absorbance was recorded on a microplate reader at λ = 570 nm (Genious Tecan, Grödig, […]). The optical density in the wells was plotted against the logarithm of compound concentration, and 50% cytotoxic concentration (CC50), the compound concentration decreasing the optical density twice comparing to control wells, was calculated using the appropriate software (Table Curve 2Dv4.USA).

[5] = system: DENV-4: SLMC318; test: Plaque reduction neutralization test (PRNT), DENV-4; assay type: cell-based, Dengue virus; details: DENV-4, BHK-21 cells; for IC50: Dengue virus, DENV4, read-out: PRNT50 DENV-4 (concentration that reduces plaque number by 50%)
Source text: as §1, §2, §3, §4

[6] = Cytotoxicity assay (MTT) in MDCK cells; assay type: cell-based, Canine; details: dog, read-out: CC50 (50% cytotoxic concentration)
Method: Initially, maximum non-toxic concentrations were determined for compounds 1–22 to exclude their non-specific antiviral activity. The in vitro cytotoxicity of the tested compounds (CC50) was studied in the normal Madin-Darby Canine Kidney cell line (MDCK) by the MTT ((3-(4,5-dimethylthiazol-2-yl)-2,5-diphenyltetrazolium bromide) test. The highest concentration tested was […]. The cytotoxicity of oseltamivir carboxylate and rimantadine was also evaluated as these have been used as reference drugs in antiviral tests. Compounds at concentration that kills no more than 50% of cells (CC50) were used for further investigation of antiviral activity.
The MDCK cells were seeded onto 96-well culture plates (10^4 cells per well) and incubated at 36 °C in 5% CO2 until continuous monolayer formation. To assess the toxicity of the compounds, a series of their 3-fold dilutions, at concentrations of 300 to 3.7 μg/mL in Eagle’s Minimal Essential Medium (MEM), were prepared. The dilutions were added to the wells of the plates. The cells were incubated for 72 h at 36 °C in a CO2 incubator under 5% CO2. Further, a microtetrazolium (MTT) assay was performed on the 96-well plates. The cells were washed 2 times with saline (0.9% NaCl), and 100 μL/well of MTT solution [3-(4,5-dimethylthiazol-2-yl)-2,5-diphenyltetrazolium bromide] at a concentration of […] in MEM was added. The plates were incubated for 1 h at 36 °C, the liquid was removed, and dimethylsulfoxide (DMSO) (0.1 mL per well) was added. The optical density (OD) of the cells was measured on a Thermo Multiskan FC spectrophotometer (Thermo Fisher Scientific, Waltham, MA, USA) at a wavelength of 540 nm. Based on the obtained data, the CC50, the concentration of the compound that destroys 50% of the cells in the culture, was calculated for each specimen.

[7] = system: influenza virus A/Puerto Rico/8/34 (H1N1); test: organism not typed; assay type: cell-based; details: for IC50: read-out: IC50 (50% inhibitory concentration)
[8] = system: Flu A H1N1 strain; parameters: method as in doi:10.1177/1934578X1801301008; details: read-out: IC50 against Flu A H1N1 strain; cited from earlier work
[9] = system: influenza virus A H7N1; details: cited from earlier work

Row | Compound | IC50 [1] [µM] | IC50 [2] [µM] | IC50 [3] [µM] | CC50 at 48 h [4] [µM] | IC50 [5] [µM] | CC50 at 72 h [6] [µM] | SI (selectivity index, CC50/IC50) [7] | IC50 ([7]; MDCK, 72 h) [µM] | melting point [°C] | further results
1 | CC1(C)CC[C@]2(CO)CC[C@]3(C)C(NCCC4[C@@]5(C)CC[C@H](O)C(C)(C)C5CC[C@]43C)C2C1 (some centres unmarked) [Compound 23, C-azepano-erythrodiol] | 107 ± 7 | 228 ± 16 | 68 ± 3 | > 544 | 108 ± 5 | – | – | – | – | –
2 | CC1(C)CC[C@]2(C(=O)N3CCCN(CC#N)CC3)CC[C@]3(C)C(=CCC4[C@@]5(C)CCC(=O)C(C)(C)C5CC[C@]43C)C2C1 (some centres unmarked) [Compound 11, N-(3-Oxo-olean-12(13)-en-28-oyl)-4′-cyanomethyl-homopiperazine Amide] | – | – | – | – | – | > 522 | >12 | 45 ± 6 | 191 | –
3 | CCC(CC)O[C@@H]1C=C(C(=O)O)C[C@H](N)[C@H]1NC(C)=O [Oseltamivir carboxylate, reference compound] | – | – | – | – | – | > 200 | >667 | 0.3 ± 0.01 | – | –
4 | COC(=O)[C@]12CCC(C)(C)CC1C1=CCC3[C@@]4(C)CC[C@H](NC(=O)c5ccccc5C(=O)O)C(C)(C)C4CC[C@@]3(C)[C@]1(C)CC2 (stereo partly drawn) [Compound 22, Methyl 3β-N-phthalyl-olean-12(13)-en-28-oate] | – | – | – | – | – | > 486 | >42 | 12 ± 2 | 240 | –
5 | CCOC(=O)CNC(=O)CN(Cc1ccccc1)C(=O)[C@]12CCC(C)(C)CC1C1=CCC3[C@@]4(C)CCC(=O)C(C)(C)C4CC[C@@]3(C)[C@]1(C)CC2 (some centres unmarked) [Compound 9, Ethyl N-Benzyl-N-3-oxo-olean-12-en-28-glycylglycinate] | – | – | – | – | – | > 437 | >11 | 41 ± 5 | 245 to 247 | –
6 | CC1(C)CC[C@]2(C(=O)NCCN3CCNCC3)CC[C@]3(C)C(=CCC4[C@@]5(C)CCC(=O)C(C)(C)C5CC[C@]43C)C2C1 (some centres unmarked) [Compound 6, N-(3-Oxo-olean-12(13)-en-28-oyl)-aminoethylpiperazine Amide] | 67 ± 4 | > 111 | 86 ± 5 | 111 ± 8 | 110 ± 8 | 442 ± 31 | 5 | 82 ± 10 | 175 | –
7 | CC1(C)CC[C@]2(C(=O)NCCCNCCCCNCCCN)CC[C@]3(C)C(=CCC4[C@@]5(C)Cc6c([nH]c7ccccc67)C(C)(C)C5CC[C@]43C)C2C1 (some centres unmarked) [Compound 8, N-([3,2b]-Indolo-olean-12(13)-en-28-oyl)-spermine Amide] | 336 ± 22 | > 351 | 347 ± 21 | > 351 | 336 ± 28 | > 140 | >5 | 27 ± 4 | 138 | PRNT50 DENV-1 (concentration that reduces plaque number by 50%) [1]: inactive; PRNT50 DENV-3 (concentration that reduces plaque number by 50%) [2]: inactive; PRNT50 DENV-2 (concentration that reduces plaque number by 50%) [3]: inactive; PRNT50 DENV-4 (concentration that reduces plaque number by 50%) [5]: inactive
8 | Lupane 3,4-seco-3,28-bis-methylpiperazine-amide | – | – | – | – | – | – | – | – | – | IC50 [8]: 27 µM
9 | CC1(C)CC[C@]2(C(=O)N3CCCNCC3)CC[C@]3(C)C(=CCC4[C@@]5(C)Cc6c([nH]c7ccccc67)C(C)(C)C5CC[C@]43C)C2C1 (some centres unmarked) [Compound 7, N-([3,2b]-Indolo-olean-12(13)-en-28-oyl)-homopiperazine Amide] | 164 ± 11 | > 410 | 105 ± 7 | > 410 | 371 ± 16 | – | – | – | > 200 | –
10 | CC(N)C12CC3CC(CC(C3)C1)C2 (centres unmarked) [Rimantadine, reference compound] | – | – | – | – | – | 344 ± 19 | 6 | – | – | –
11 | CC1(C)CC[C@]2(C(=O)N3CCCNCC3)CC[C@]3(C)C(=CCC4[C@@]5(C)CCC(=O)C(C)(C)C5CC[C@]43C)C2C1 (some centres unmarked) [Compound 2, N-(3-Oxo-olean-12(13)-en-28-oyl)-homopiperazine Amide] | – | – | – | – | – | > 560 | >27 | 20 to 21 | 174 | IC50 [7]: 21 ± 3 µM
12 | betulonic acid L-leucine-amide | – | – | – | – | – | – | – | – | – | suppression of the influenza virus A H7N1 [9]: 90%; EC50 ([9]; influenza virus A H7N1): 2.17 µM
13 | CCOC(=O)CNC(=O)CN(Cc1ccccc1)C(=O)[C@]12CCC(C)(C)CC1C1=CCC3[C@@]4(C)Cc5c([nH]c6ccccc56)C(C)(C)C4CC[C@@]3(C)[C@]1(C)CC2 (some centres unmarked) [Compound 10, Ethyl N-Benzyl-N-2,3-indolo-olean-12-en-28-glycylglycinate] | – | – | – | – | – | 121 ± 9 | 3 | 39 ± 4 | 197 to 199 | –
